In ChEMBL document CHEMBL3797052 (Eur J Med Chem, 2016):

How the values were obtained:
Assay type in all cases: functional
786-0 = assay: Antiproliferative activity against human 786-0 cells assessed as growth inhibition after 48 hrs by sulforhodamine B assay; settings: 786-0, 48 h
[1] = Antiproliferative activity against human HOP62 cells assessed as cell growth at 10^-4 M after 48 hrs by sulforhodamine B assay; settings: HOP-62, 48 h, read-out: Activity
ACHN = assay: Antiproliferative activity against human ACHN cells assessed as cell growth at 10^-7 M after 48 hrs by sulforhodamine B assay; settings: read-out: Activity
[2] = Antiproliferative activity against human HOP92 cells assessed as cell growth at 10^-7 M after 48 hrs by sulforhodamine B assay; settings: HOP-92, 48 h, read-out: Activity
[3] = Antiproliferative activity against human HCT15 cells assessed as cell growth at 10^-4 M after 48 hrs by sulforhodamine B assay; settings: HCT-15, 48 h, read-out: Activity
SK-MEL-5 [4] = assay: Antiproliferative activity against human SK-MEL-5 cells assessed as cell growth at 10^-6 M after 48 hrs by sulforhodamine B assay; settings: SK-MEL-5, 48 h, read-out: Activity
T47D = assay: Antiproliferative activity against human T47D cells assessed as cell growth at 10^-7 M after 48 hrs by sulforhodamine B assay; settings: read-out: Activity
EKVX = assay: Antiproliferative activity against human EKVX cells assessed as cell growth at 10^-6 M after 48 hrs by sulforhodamine B assay; settings: read-out: Activity
[5] = Antiproliferative activity against human SF268 cells assessed as cell growth at 10^-6 M after 48 hrs by sulforhodamine B assay; settings: SF-268, 48 h, read-out: Activity
MCF7 = assay: Antiproliferative activity against human MCF7 cells assessed as cell growth at 10^-6 M after 48 hrs by sulforhodamine B assay; settings: MCF7, 48 h, read-out: Activity
NCI-H322M = assay: Antiproliferative activity against human NCI-H322M cells assessed as cell growth at 10^-6 M after 48 hrs by sulforhodamine B assay; settings: read-out: Activity
SN12C [6] = assay: Antiproliferative activity against human SN12C cells assessed as cell growth at 10^-6 M after 48 hrs by sulforhodamine B assay; settings: read-out: Activity
[7] = Antiproliferative activity against human OVCAR3 cells assessed as cell growth at 10^-6 M after 48 hrs by sulforhodamine B assay; settings: OVCAR-3, 48 h, read-out: Activity
[8] = Antiproliferative activity against human NCI-ADR-RES cells assessed as cell growth at 10^-7 M after 48 hrs by sulforhodamine B assay; settings: read-out: Activity
[9] = Antiproliferative activity against human UO31 cells assessed as cell growth at 10^-6 M after 48 hrs by sulforhodamine B assay; settings: UO-31, 48 h, read-out: Activity
SK-MEL-5 [10] = assay: Antiproliferative activity against human SK-MEL-5 cells assessed as cell growth at 10^-8 M after 48 hrs by sulforhodamine B assay; settings: SK-MEL-5, 48 h, read-out: Activity
[11] = Antiproliferative activity against human DU145 cells assessed as growth inhibition after 48 hrs by sulforhodamine B assay; settings: DU-145, 48 h; for CC50: read-out: LC50 (the source's name)
[12] = Antiproliferative activity against human HCT116 cells assessed as growth inhibition after 48 hrs by sulforhodamine B assay; settings: HCT-116, 48 h
NCI-H522 = assay: Antiproliferative activity against human NCI-H522 cells assessed as growth inhibition after 48 hrs by sulforhodamine B assay; settings: NCI-H522, 48 h
[13] = Antiproliferative activity against human OVCAR5 cells assessed as cell growth at 10^-4 M after 48 hrs by sulforhodamine B assay; settings: OVCAR-5, 48 h, read-out: Activity
NCI-H226 = assay: Antiproliferative activity against human NCI-H226 cells assessed as cell growth at 10^-6 M after 48 hrs by sulforhodamine B assay; settings: NCI-H226, 48 h, read-out: Activity
[14] = Antiproliferative activity against human HL-60(TB) cells assessed as cell growth at 10^-8 M after 48 hrs by sulforhodamine B assay; settings: HL-60, 48 h, read-out: Activity
[15] = Antiproliferative activity against human NCI-ADR-RES cells assessed as growth inhibition after 48 hrs by sulforhodamine B assay
[16] = Antiproliferative activity against human SF295 cells assessed as cell growth at 10^-6 M after 48 hrs by sulforhodamine B assay; settings: SF-295, 48 h, read-out: Activity
[17] = Antiproliferative activity against human RXF393 cells assessed as cell growth at 10^-8 M after 48 hrs by sulforhodamine B assay; settings: RXF 393, 48 h, read-out: Activity
M14 = assay: Antiproliferative activity against human M14 cells assessed as growth inhibition after 48 hrs by sulforhodamine B assay; settings: M14, 48 h; for CC50: read-out: LC50 (the source's name)
SN12C [18] = assay: Antiproliferative activity against human SN12C cells assessed as cell growth at 10^-7 M after 48 hrs by sulforhodamine B assay; settings: read-out: Activity
[19] = Antiproliferative activity against human BT549 cells assessed as cell growth at 10^-7 M after 48 hrs by sulforhodamine B assay; settings: BT-549, 48 h, read-out: Activity
[20] = Antiproliferative activity against human SKOV3 cells assessed as cell growth at 10^-7 M after 48 hrs by sulforhodamine B assay; settings: SK-OV-3, 48 h, read-out: Activity
[21] = Antiproliferative activity against human SF268 cells assessed as cell growth at 10^-8 M after 48 hrs by sulforhodamine B assay; settings: SF-268, 48 h, read-out: Activity
[22] = Antiproliferative activity against human NCI-ADR-RES cells assessed as cell growth at 10^-8 M after 48 hrs by sulforhodamine B assay; settings: read-out: Activity
[23] = Antiproliferative activity against human RXF393 cells assessed as cell growth at 10^-7 M after 48 hrs by sulforhodamine B assay; settings: RXF 393, 48 h, read-out: Activity
[24] = Antiproliferative activity against human UO31 cells assessed as cell growth at 10^-4 M after 48 hrs by sulforhodamine B assay; settings: UO-31, 48 h, read-out: Activity
U-251 = assay: Antiproliferative activity against human U251 cells assessed as growth inhibition after 48 hrs by sulforhodamine B assay; settings: U-251, 48 h
SK-MEL-28 = assay: Antiproliferative activity against human SK-MEL-28 cells assessed as cell growth at 10^-8 M after 48 hrs by sulforhodamine B assay; settings: SK-MEL-28, 48 h, read-out: Activity
[25] = Antiproliferative activity against human HOP62 cells assessed as growth inhibition after 48 hrs by sulforhodamine B assay; settings: HOP-62, 48 h
SK-MEL-5 [26] = assay: Antiproliferative activity against human SK-MEL-5 cells assessed as growth inhibition after 48 hrs by sulforhodamine B assay; settings: SK-MEL-5, 48 h

SMILES: CNC(=O)c1cc(Oc2ccc3nc(NC(=O)Nc4cc(C(F)(F)F)cc(C(F)(F)F)c4)sc3c2)ccn1
- GI50 (786-0): 1420 nM
- LC50 (786-0): 5760 nM
- TGI (786-0): 2860 nM
- growth at 100 µM [1]: -76%
- growth at 0.1 µM (ACHN): 99%
- growth at 0.1 µM [2]: 98%
- growth at 100 µM [3]: -67%
- growth at 1 µM (SK-MEL-5 [4]): 36%
- growth at 0.1 µM (T47D): 89%
- growth at 1 µM (EKVX): 60%
- growth at 1 µM [5]: 65%
- growth at 1 µM (MCF7): 52%
- growth at 1 µM (NCI-H322M): 73%
- growth at 1 µM (SN12C [6]): 80%
- growth at 1 µM [7]: 52%
- growth at 0.1 µM [8]: 98%
- growth at 1 µM [9]: 65%
- growth at 0.01 µM (SK-MEL-5 [10]): 97%
- GI50 [11]: 1250 nM
- TGI [11]: 2980 nM
- CC50 [11]: 7140 nM
- GI50 [12]: 1120 nM
- LC50 (concentration killing 50% of the starting cells) [12]: 5370 nM
- TGI [12]: 2460 nM
- GI50 (NCI-H522): 534 nM
- LC50 (concentration killing 50% of cells) (NCI-H522): 8100 nM
- TGI (NCI-H522): 2280 nM
- growth at 100 µM [13]: -74%
- growth at 1 µM (NCI-H226): 71%
- growth at 0.01 µM [14]: 110%
- GI50 [15]: 1270 nM
- TGI [15]: 3190 nM
- growth at 1 µM [16]: 55%
- growth at 0.01 µM [17]: 89%
- GI50 (M14): 1500 nM
- TGI (M14): 3220 nM
- CC50 (M14): 6900 nM
- growth at 0.1 µM (SN12C [18]): 104%
- growth at 0.1 µM [19]: 96%
- growth at 0.1 µM [20]: 99%
- growth at 0.01 µM [21]: 97%
- growth at 0.01 µM [22]: 101%
- growth at 0.1 µM [23]: 91%
- growth at 100 µM [24]: -79%
- GI50 (U-251): 1020 nM
- LC50 (U-251): 4780 nM
- TGI (U-251): 2200 nM
- growth at 0.01 µM (SK-MEL-28): 93%
- GI50 [25]: 1150 nM
- LC50 [25]: 6790 nM
- TGI [25]: 2800 nM
- GI50 (SK-MEL-5 [26]): 593 nM
- TGI (SK-MEL-5 [26]): 2090 nM
- CC50 (SK-MEL-5 [26]; read-out: LC50 (the source's name)): 5870 nM

SMILES: CNC(=O)c1cc(Oc2ccc3nc(NC(=O)Nc4ccc(Cl)c(C(F)(F)F)c4)sc3c2)ccn1
- GI50 (786-0): 1790 nM
- LC50 (786-0): 6480 nM
- TGI (786-0): 3400 nM
- growth at 100 µM [1]: -34%
- growth at 0.1 µM (ACHN): 102%
- growth at 0.1 µM [2]: 80%
- growth at 100 µM [3]: 23%
- growth at 1 µM (SK-MEL-5 [4]): 87%
- growth at 0.1 µM (T47D): 92%
- growth at 1 µM (EKVX): 82%
- growth at 1 µM [5]: 78%
- growth at 1 µM (MCF7): 66%
- growth at 1 µM (NCI-H322M): 96%
- growth at 1 µM (SN12C [6]): 81%
- growth at 1 µM [7]: 108%
- growth at 0.1 µM [8]: 113%
- growth at 1 µM [9]: 108%
- growth at 0.01 µM (SK-MEL-5 [10]): 93%
- GI50 [11]: 2240 nM
- CC50 [11]: > 100000 nM
- GI50 [12]: 1890 nM
- LC50 (concentration killing 50% of the starting cells) [12]: > 100000 nM
- TGI [12]: 5390 nM
- GI50 (NCI-H522): 2540 nM
- LC50 (concentration killing 50% of cells) (NCI-H522): > 100000 nM
- TGI (NCI-H522): > 100000 nM
- growth at 100 µM [13]: -24%
- growth at 1 µM (NCI-H226): 98%
- growth at 0.01 µM [14]: 101%
- GI50 [15]: 2430 nM
- LC50 (concentration killing 50% of cells) [15]: > 100000 nM
- growth at 1 µM [16]: 90%
- growth at 0.01 µM [17]: 87%
- GI50 (M14): 1960 nM
- CC50 (M14): > 100000 nM
- growth at 0.1 µM (SN12C [18]): 93%
- growth at 0.1 µM [19]: 100%
- growth at 0.1 µM [20]: 103%
- growth at 0.01 µM [21]: 107%
- growth at 0.01 µM [22]: 110%
- growth at 0.1 µM [23]: 90%
- growth at 100 µM [24]: 28%
- GI50 (U-251): 1790 nM
- TGI (U-251): 3750 nM
- growth at 0.01 µM (SK-MEL-28): 92%
- GI50 [25]: 1940 nM
- LC50 [25]: > 100000 nM
- TGI [25]: 4740 nM
